Experimental findings from article PMC6399351, “Cationic Intrinsically Disordered Antimicrobial Peptides (CIDAMPs) Represent a New Paradigm of Innate Defense with a Potential for Novel Anti-Infectives” (Scientific Reports, 2019) are described below.

The subject of one assay is P. aeruginosa ATCC 10145. The following applies: CFU assay, 10 mM NaP, pH 5.5, 0.25% glucose.
The test system of a further assay is S. aureus ATCC 6538. As to conditions: CFU assay, 10 mM NaP.

Values joined by “and” are separate entries in the source; they are usually repeats but may differ in a detail not shown here. Equal entries are not always repeated. Where two headings read alike, the source gives them in different places. Square brackets hold non-standard residues; d marks the D form. Ends that are not written are not given here. Peptide text beside a SMILES is read from it. * marks the point of attachment. Palmitoyl = CCCCCCCCCCCCCCCC(=O)*; Myristoyl = CCCCCCCCCCCCCC(=O)*; dOrn = NCCC[C@@H](N)C(=O)O; Orn = NCCC[C@H](N)C(=O)O Where only a bound is given, the exact number is not on record here.

For `CCCCCCCCCCCCCC(=O)NCC(=O)N[C@@H](CCCNC(=N)N)C(=O)N[C@@H](Cc1c[nH]cn1)C(=O)NCC(=O)N[C@@H](CO)C(=O)NCC(=O)N[C@@H](CC(C)C)C(=O)NCC(=O)N[C@@H](Cc1c[nH]cn1)C(=O)N[C@@H](CO)C(=O)N[C@@H](CO)C(=O)N[C@@H](CO)C(=O)N[C@@H](Cc1c[nH]cn1)C(=O)NCC(=O)N[C@@H](CCC(N)=O)C(=O)N[C@@H](Cc1c[nH]cn1)C(=O)NCC(=O)N[C@@H](CO)C(=O)NCC(=O)N[C@@H](CO)C(=O)NCC(=O)N[C@@H](CCCNC(=N)N)C(=O)O` [Myr-HR 1-18] (Myristoyl-GRHGSGLGHSSSHGQHGSGSGR-OH; C-terminus assumed), the LD90 with P. aeruginosa ATCC 10145 worked out at 0.075 µg/mL; with S. aureus ATCC 6538 (pH 5.5, 0.25% glucose), 9.38 µg/mL; with S. aureus ATCC 6538 (pH 7.3, 1% TSB), 18.75 µg/mL. In addition, the LD100 with P. aeruginosa ATCC 10145 was 0.3 µg/mL; in the assay with S. aureus ATCC 6538 (pH 5.5, 0.25% glucose), 75 µg/mL; with S. aureus ATCC 6538 (pH 7.3, 1% TSB), 75 µg/mL.
In turn, LRHGSGLGHSSSHGQHGSGSGR [HR 1-18-Leu] registered an LD90 in the assay with P. aeruginosa ATCC 10145 of 4.7 µg/mL. In the assay on S. aureus ATCC 6538 (pH 5.5, 0.25% glucose), this compound yielded an LD90 of 300 µg/mL and an LD100 of over 300 µg/mL.
Consider `CCCCCCCCCCCCCCCC(=O)NCC(=O)N[C@@H](CCCN)C(=O)N[C@@H](CCCN)C(=O)NCC(=O)NCC(=O)N[C@@H](CCCN)C(=O)NCC(=O)NCC(=O)N[C@@H](CCCN)C(=O)NCC(=O)N[C@@H](CCCN)C(=O)NCC(=O)N[C@@H](CCCN)C(=O)O` [Pal-Orn-GR13] (Palmitoyl-G[Orn][Orn]GG[Orn]GG[Orn]G[Orn]G[Orn]-OH; C-terminus assumed), for which, in the assay with P. aeruginosa ATCC 10145, the LD90 came out at 0.075 µg/mL and the LD100 was 0.3 µg/mL. In the assay on S. aureus ATCC 6538 (pH 5.5, 0.25% glucose), the LD90 was 0.15 µg/mL and the LD100 is 18.75 µg/mL.
For `CCCCCCCCCCCCCCCC(=O)NCC(=O)N[C@H](CCCCN)C(=O)NCC(=O)N[C@H](CCCCN)C(=O)O` [Pal-(D)-GK4] (Palmitoyl-G[dK]G[dK]-OH; C-terminus assumed) the same measures were 1.18 µg/mL, 4.7 µg/mL, 4.7 µg/mL and 9.375 µg/mL.
Consider `CCCCCCCCCCCCCCCC(=O)NCC(=O)N[C@@H](CCCN)C(=O)NCC(=O)N[C@@H](CCCN)C(=O)O` [Pal-GO4] (Palmitoyl-G[Orn]G[Orn]-OH; C-terminus assumed), for which the LD90 in the assay on P. aeruginosa ATCC 10145 was 2.35 µg/mL; in the assay with S. aureus ATCC 6538 (pH 5.5, 0.25% glucose), 9.38 µg/mL. Moreover, the LD100 with P. aeruginosa ATCC 10145 amounted to 18.75 µg/mL.
`CCCCCCCCCCCCCCCC(=O)SC[C@H](NC(=O)[C@H](Cc1ccccc1)NC(=O)[C@H](Cc1c[nH]cn1)NC(=O)CNC(=O)[C@H](CO)NC(=O)CNC(=O)[C@H](CO)NC(=O)CNC(=O)[C@H](Cc1c[nH]cn1)NC(=O)[C@H](CCC(N)=O)NC(=O)[C@H](CO)NC(=O)[C@H](Cc1ccc(O)cc1)NC(=O)[C@H](C)NC(=O)[C@H](CO)NC(=O)[C@H](CO)NC(=O)[C@H](Cc1c[nH]cn1)NC(=O)CNC(=O)[C@H](CO)NC(=O)CNC(=O)[C@H](CO)NC(=O)[C@H](CCC(=O)O)NC(=O)[C@H](Cc1c[nH]cn1)NC(=O)[C@H](CCC(N)=O)NC(=O)CNC(=O)[C@H](Cc1ccccc1)NC(=O)[C@@H](NC(=O)[C@H](CO)NC(=O)[C@H](CO)NC(=O)[C@H](Cc1c[nH]cn1)NC(=O)CNC(=O)[C@@H](N)CO)C(C)C)C(N)=O` [S-Pal-HRNR1748–1778] (H-SGHSSVFGQHESGSGHSSAYSQHGSGSGHFC(Palmitoyl)-NH2; N-terminus assumed): in the assay with S. aureus ATCC 6538 (pH 5.5, 0.25% glucose), the LD90 stood at 0.3 µg/mL and the LD100 was determined as 9.38 µg/mL.
For GRRGGGGGRGGGRGGRGGGGGR [HR 1-18,G+R] the same measures were over 300 µg/mL and over 300 µg/mL.
The compound `CCCCCCCCCCCCCCCC(=O)NCC(=O)N[C@@H](CCCCN)C(=O)NCC(=O)N[C@@H](CCCCN)C(=O)O` [Pal-GK4] (Palmitoyl-GKGK-OH; C-terminus assumed) registered an LD100 with P. aeruginosa ATCC 10145 of 9.375 µg/mL. Besides, in the assay on S. aureus ATCC 6538 (pH 5.5, 0.25% glucose), the LD90 turned out to be 4.7 µg/mL and the LD100 was 9.375 µg/mL.
Regarding “GRRGSGGGRSSSRGGRGSGSGR [HR 1-18,4H-4R/L-G]”, the LD100 with P. aeruginosa ATCC 10145 was 0.15 µg/mL; in the assay on S. aureus ATCC 6538 (pH 5.5, 0.25% glucose), over 300 µg/mL. The LD90 with S. aureus ATCC 6538 (pH 5.5, 0.25% glucose) is over 300 µg/mL.
In the assay with P. aeruginosa ATCC 10145, `CCCCCCCCCCCCCCCC(=O)NCC(=O)N[C@H](CCCN)C(=O)NCC(=O)N[C@H](CCCN)C(=O)O` [Pal-(D)-GO4] (Palmitoyl-G[dOrn]G[dOrn]-OH; C-terminus assumed) registered an LD90 of 1.18 µg/mL and an LD100 of 9.38 µg/mL. In the assay with S. aureus ATCC 6538 (pH 5.5, 0.25% glucose), this compound registered an LD90 of 9.38 µg/mL and an LD100 of 18.75 µg/mL.
The compound `CCCCCCCCCCCCCCCC(=O)SC[C@H](N)C(=O)NCC(=O)N[C@@H](CCC(N)=O)C(=O)N[C@@H](Cc1c[nH]cn1)C(=O)NCC(=O)N[C@@H](C)C(=O)N[C@H](C(=O)N[C@@H](CO)C(=O)N[C@@H](CO)C(=O)NCC(=O)N[C@@H](CCC(N)=O)C(=O)N[C@@H](CO)C(=O)N[C@@H](CO)C(=O)N[C@@H](CO)C(=O)N[C@@H](Cc1c[nH]cn1)C(=O)NCC(=O)N[C@@H](CCC(N)=O)C(=O)N[C@@H](Cc1c[nH]cn1)C(=O)NCC(=O)N[C@@H](CO)C(=O)NCC(=O)N[C@@H](CO)C(=O)N[C@@H](CO)C(=O)N[C@@H](CCC(N)=O)C(=O)N[C@@H](CO)C(=O)N[C@@H](CO)C(=O)NCC(=O)N[C@@H](Cc1ccc(O)cc1)C(=O)NCC(=O)N[C@@H](CCCNC(=N)N)C(=O)O)[C@@H](C)O` [S-Pal-HRNR1089–1117] (H-C(Palmitoyl)GQHGATSSGQSSSHGQHGSGSSQSSGYGR-OH; N-terminus and C-terminus assumed) gave an LD100 in the assay on S. aureus ATCC 6538 (pH 5.5, 0.25% glucose) of over 150 µg/mL.
In the assay with S. aureus ATCC 6538 (pH 5.5, 0.25% glucose), `N=C(N)NCCC[C@H](NC(=O)[C@H](CC(=O)O)NC(=O)[C@H](CS)NC(=O)[C@H](CO)NC(=O)[C@H](CC(N)=O)NC(=O)[C@H](CO)NC(=O)[C@H](CCCNC(=N)N)NC(=O)[C@H](CCC(N)=O)NC(=O)[C@H](CCCNC(=N)N)NC(=O)[C@H](CCCNC(=N)N)NC(=O)[C@H](CS)NC(=O)[C@H](CCC(N)=O)NC(=O)[C@H](Cc1c[nH]cn1)NC(=O)[C@H](CO)NC(=O)[C@H](CCCNC(=N)N)NC(=O)[C@H](Cc1ccccc1)NC(=O)[C@H](Cc1c[nH]cn1)NC(=O)[C@H](CCCNC(=N)N)NC(=O)[C@H](Cc1c[nH]cn1)NC(=O)[C@H](Cc1c[nH]cn1)NC(=O)[C@@H](N)CO)C(=O)O` [LCE-3C55-75] (H-SHHRHFRSHQCRRQRSNSCDR-OH; N-terminus and C-terminus assumed) returned an LD90 of 0.59 µg/mL and an LD100 of over 150 µg/mL.
With “Pal-SHHRHFRSHQCRRQRS NSCDR [Pal-LCE-3C55-75]”, in the assay with S. aureus ATCC 6538 (pH 5.5, 0.25% glucose), the LD90 was 0.15 µg/mL and the LD100 worked out at 0.59 µg/mL.
For `CCCCCCCCCCCCCCCC(=O)SC[C@H](N)C(=O)NCC(=O)N[C@@H](CCC(N)=O)C(=O)N[C@@H](Cc1c[nH]cn1)C(=O)NCC(=O)N[C@@H](C)C(=O)N[C@H](C(=O)N[C@@H](CO)C(=O)NCC(=O)N[C@@H](CCC(N)=O)C(=O)N[C@@H](CO)C(=O)N[C@@H](CO)C(=O)N[C@@H](CO)C(=O)N[C@@H](Cc1c[nH]cn1)C(=O)NCC(=O)N[C@@H](CCC(N)=O)C(=O)N[C@@H](Cc1c[nH]cn1)C(=O)NCC(=O)N[C@@H](CO)C(=O)NCC(=O)N[C@@H](CO)C(=O)N[C@@H](CO)C(=O)N[C@@H](CCC(N)=O)C(=O)N[C@@H](CO)C(=O)N[C@@H](CO)C(=O)N[C@@H](CCCNC(=N)N)C(=O)O)[C@@H](C)O` [S-Pal-HRNR623–648] (H-C(Palmitoyl)GQHGATSGQSSSHGQHGSGSSQSSR-OH; N-terminus and C-terminus assumed) the same measures were 2.35 µg/mL and over 150 µg/mL.
As to `CCCCCCCCCCCCCC(=O)NCC(=O)N[C@@H](CCCNC(=N)N)C(=O)N[C@@H](CCCNC(=N)N)C(=O)NCC(=O)N[C@@H](CO)C(=O)NCC(=O)N[C@@H](CC(C)C)C(=O)NCC(=O)N[C@@H](CCCNC(=N)N)C(=O)N[C@@H](CO)C(=O)N[C@@H](CO)C(=O)N[C@@H](CO)C(=O)N[C@@H](CCCNC(=N)N)C(=O)NCC(=O)N[C@@H](CCC(N)=O)C(=O)N[C@@H](CCCNC(=N)N)C(=O)NCC(=O)N[C@@H](CO)C(=O)NCC(=O)N[C@@H](CO)C(=O)NCC(=O)N[C@@H](CCCNC(=N)N)C(=O)O` [Myr-HR 1-18-HR] (Myristoyl-GRRGSGLGRSSSRGQRGSGSGR-OH; C-terminus assumed), in the assay with S. aureus ATCC 6538 (pH 7.3, 1% TSB), the LD90 is listed as 18.75 µg/mL and the LD100 came to 75 µg/mL.
In the assay with S. aureus ATCC 6538 (pH 5.5, 0.25% glucose), SHHRPRLFHRRRH [LCE-2B74-86] displayed an LD90 of 1.18 µg/mL and an LD100 of over 150 µg/mL.
In the case of `CCCCCCCCCCCCCCCC(=O)SC[C@H](NC(=O)CNC(=O)[C@H](CO)NC(=O)[C@H](CO)NC(=O)[C@H](CCC(N)=O)NC(=O)[C@H](Cc1c[nH]c2ccccc12)NC(=O)[C@H](CO)NC(=O)[C@H](CO)NC(=O)[C@H](CO)NC(=O)[C@H](CCC(=O)O)NC(=O)[C@H](Cc1c[nH]cn1)NC(=O)[C@H](Cc1c[nH]cn1)NC(=O)CNC(=O)[C@H](Cc1ccccc1)NC(=O)CNC(=O)[C@H](CO)NC(=O)[C@H](CO)NC(=O)[C@H](CCC(N)=O)NC(=O)CNC(=O)[C@H](CO)NC(=O)CNC(=O)[C@H](CO)NC(=O)CNC(=O)[C@H](Cc1c[nH]cn1)NC(=O)[C@H](CCCNC(=N)N)NC(=O)CN)C(N)=O` [S-Pal-HRNR1389–1414] (H-GRHGSGSGQSSGFGHHESSSWQSSGC(Palmitoyl)-NH2; N-terminus assumed), in the assay with S. aureus ATCC 6538 (pH 5.5, 0.25% glucose), the LD90 worked out at 1.18 µg/mL and the LD100 is 18.8 µg/mL.
As to `CCCCCCCCCCCCCCCC(=O)SC[C@H](NC(=O)[C@H](CO)NC(=O)[C@H](CO)NC(=O)[C@H](CO)NC(=O)[C@H](CCC(N)=O)NC(=O)CNC(=O)[C@H](CO)NC(=O)[C@H](C)NC(=O)[C@H](CO)NC(=O)CNC(=O)[C@H](Cc1c[nH]cn1)NC(=O)[C@H](CCC(N)=O)NC(=O)CNC(=O)[C@H](Cc1c[nH]cn1)NC(=O)[C@@H](NC(=O)[C@H](CO)NC(=O)[C@H](CO)NC(=O)[C@H](Cc1c[nH]cn1)NC(=O)CNC(=O)[C@H](CO)NC(=O)[C@H](CO)NC(=O)[C@H](CO)NC(=O)CNC(=O)[C@H](Cc1c[nH]cn1)NC(=O)[C@H](CCC(N)=O)NC(=O)CN)[C@@H](C)O)C(N)=O` [S-Pal-HRNR2004–2029] (H-GQHGSSSGHSSTHGQHGSASGQSSSC(Palmitoyl)-NH2; N-terminus assumed), in the assay with S. aureus ATCC 6538 (pH 5.5, 0.25% glucose), the LD90 was 0.59 µg/mL; the LD100 is > 150 µg/mL and 75 µg/mL.
